Laboratory results as given in article PMC7317212 (Chemmedchem, 2020).
Read-outs that look alike come from different tables or passages of the source.

Assays:
[1] = molecular target: T1, mGAT2 (Mus musculus, UniProt P31651); test: [^3H]GABA uptake assay, HEK293 cells expressing mGAT2; assay type: cell-based; details: HEK293; in presence of 100 μM compound
T1 construct: expressed in transfected cells; host or cells: HEK293
T1 sequence (P31651 1-614): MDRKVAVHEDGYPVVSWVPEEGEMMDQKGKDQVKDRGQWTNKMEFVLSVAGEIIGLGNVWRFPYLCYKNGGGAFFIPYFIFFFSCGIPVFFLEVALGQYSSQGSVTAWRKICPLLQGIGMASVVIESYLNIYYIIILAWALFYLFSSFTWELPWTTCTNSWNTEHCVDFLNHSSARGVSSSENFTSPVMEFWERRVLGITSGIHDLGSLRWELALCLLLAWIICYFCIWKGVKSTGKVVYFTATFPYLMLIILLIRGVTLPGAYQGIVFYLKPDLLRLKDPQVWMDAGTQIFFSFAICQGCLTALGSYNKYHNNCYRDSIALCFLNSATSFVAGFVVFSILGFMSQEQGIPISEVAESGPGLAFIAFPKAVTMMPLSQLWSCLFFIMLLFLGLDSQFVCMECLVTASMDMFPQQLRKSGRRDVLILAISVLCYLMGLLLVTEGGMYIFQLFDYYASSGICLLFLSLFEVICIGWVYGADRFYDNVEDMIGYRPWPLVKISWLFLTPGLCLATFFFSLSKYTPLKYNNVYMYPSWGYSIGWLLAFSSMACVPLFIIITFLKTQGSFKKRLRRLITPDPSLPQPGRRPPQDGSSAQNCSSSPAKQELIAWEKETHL
Method in brief: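 HEK293 cells expressing mouse GATs preincubated 25 min at 37 °C with compound in Krebs buffer pH 7.2, then [3H]GABA added: 8 nM plus 32 nM unlabeled for 4 min (mGAT1/3/4), 20 nM plus 20 nM for 10 min (mGAT2). Filtration, scintillation counting; nonspecific uptake with 10 mM (mGAT1/3/4) or 100 mM GABA (mGAT2); pIC50.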

[2] = molecular target: T2, mGAT4 (Mus musculus, UniProt P31650); test: GABA uptake inhibition at mGAT4 with varied preincubation time; assay type: cell-based
T2 construct: expressed in transfected cells; host or cells: HEK293
T2 sequence (P31650 1-627): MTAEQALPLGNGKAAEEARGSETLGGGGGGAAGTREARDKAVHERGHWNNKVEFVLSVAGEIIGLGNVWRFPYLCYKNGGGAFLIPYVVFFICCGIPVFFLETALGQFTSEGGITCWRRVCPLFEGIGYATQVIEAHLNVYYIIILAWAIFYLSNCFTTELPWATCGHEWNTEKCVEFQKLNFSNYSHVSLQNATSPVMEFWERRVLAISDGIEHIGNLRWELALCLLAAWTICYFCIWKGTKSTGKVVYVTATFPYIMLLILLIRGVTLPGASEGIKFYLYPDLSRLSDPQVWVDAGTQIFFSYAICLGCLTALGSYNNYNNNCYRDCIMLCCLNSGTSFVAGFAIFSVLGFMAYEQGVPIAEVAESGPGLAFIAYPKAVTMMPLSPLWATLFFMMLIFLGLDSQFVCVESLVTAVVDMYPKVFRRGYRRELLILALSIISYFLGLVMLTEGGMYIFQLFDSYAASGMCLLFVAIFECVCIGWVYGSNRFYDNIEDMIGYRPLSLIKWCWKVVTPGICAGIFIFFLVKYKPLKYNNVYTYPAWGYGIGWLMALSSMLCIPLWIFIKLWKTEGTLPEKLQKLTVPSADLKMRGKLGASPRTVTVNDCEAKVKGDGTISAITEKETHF

SMILES: COc1ccc(C(OCCN2CCCC(C(=O)O)C2)(c2ccc(C=O)cc2)c2ccc(OC)cc2)cc1 (racemic) [5 a, rac‐ 1‐{2‐[(4‐Formylphenyl)bis(4‐methoxyphenyl)methoxy]ethyl}piper‐idine‐3‐carboxylic acid]
- remaining activity at 100 µM [1]: 66.3%
- IC50 ([2]; Experiment No. 1, preincubation time 10 min, read-out: pIC50 mGAT4 (converted)): 1350 nM
- IC50 ([2]; Experiment No. 1, preincubation time 25 min, read-out: pIC50 mGAT4 (converted)): 1050 nM
- IC50 ([2]; Experiment No. 1, preincubation time 60 min, read-out: pIC50 mGAT4 (converted)): 912 nM
- IC50 ([2]; Experiment No. 2, preincubation time 10 min, read-out: pIC50 mGAT4 (converted)): 2690 nM
- IC50 ([2]; Experiment No. 2, preincubation time 25 min, read-out: pIC50 mGAT4 (converted)): 1860 nM
- IC50 ([2]; Experiment No. 2, preincubation time 60 min, read-out: pIC50 mGAT4 (converted)): 1230 nM
- IC50 ([2]; Experiment No. 3, preincubation time 10 min, read-out: pIC50 mGAT4 (converted)): 2690 nM
- IC50 ([2]; Experiment No. 3, preincubation time 25 min, read-out: pIC50 mGAT4 (converted)): 1480 nM
- IC50 ([2]; Experiment No. 3, preincubation time 60 min, read-out: pIC50 mGAT4 (converted)): 1660 nM
- IC50 ([2]; Experiment No. 4, preincubation time 25 min, read-out: pIC50 mGAT4 (converted)): 2000 nM
- IC50 ([2]; Experiment No. 4, preincubation time 60 min, read-out: pIC50 mGAT4 (converted)): 617 nM
- IC50 ([2]; Experiment No. 5, preincubation time 25 min, read-out: pIC50 mGAT4 (converted)): 1580 nM
- IC50 ([2]; Experiment No. 5, preincubation time 60 min, read-out: pIC50 mGAT4 (converted)): 1260 nM
- IC50 ([2]; Experiment No. 6, preincubation time 25 min, read-out: pIC50 mGAT4 (converted)): 1380 nM
- IC50 ([2]; Experiment No. 6, preincubation time 60 min, read-out: pIC50 mGAT4 (converted)): 1020 nM
- Normalized pIC50 mGAT4 ([2]; preincubation time 10 min, experiments 1-3, relative to 25 min = 100.00): 97.98
- IC50 ([2]; preincubation time 10 min, experiments 1-3, read-out: Average pIC50 mGAT4 (converted)): 2140 nM
- Normalized pIC50 mGAT4 ([2]; preincubation time 25 min, experiments 1-3 (reference)): 100.00
- IC50 ([2]; preincubation time 25 min, experiments 1-3, read-out: Average pIC50 mGAT4 (converted)): 1410 nM
- Normalized pIC50 mGAT4 ([2]; preincubation time 25 min, experiments 4-6 (reference)): 100.00
- IC50 ([2]; preincubation time 25 min, experiments 4-6, read-out: Average pIC50 mGAT4 (converted)): 1620 nM
- Normalized pIC50 mGAT4 ([2]; preincubation time 60 min, experiments 1-3, relative to 25 min = 100.00): 101.08
- IC50 ([2]; preincubation time 60 min, experiments 1-3, read-out: Average pIC50 mGAT4 (converted)): 1230 nM
- Normalized pIC50 mGAT4 ([2]; preincubation time 60 min, experiments 4-6, relative to 25 min = 100.00): 104.26
- IC50 ([2]; preincubation time 60 min, experiments 4-6, read-out: Average pIC50 mGAT4 (converted)): 933 nM
